Experimental data from patent US8183228B2, “Anticoagulant antithrombotic dual inhibitors comprising a biotin label” (MSD OSS B.V. Netherlands, priority 2005, dated 2012).
Structures can show the parent of a compound that is named as a salt. Where two headings read alike, the source gives them in different places.

Legend:
[1] = Pharmacokinetics - neutralization experiment with avidin i.v. in rat; type: in vivo; conditions: for level at time molar at 24 h: plasma, sc, before avidin, read-out: Plasma level T = 24 h; for level at time molar at 24 h / Plasma level T = 26 h / % reduction of plasma concentration: s.c. 500 nmol/kg; for Plasma level T = 26 h: 2 hours after avidin 10 mg/kg i.v. at t = 24 h; for % reduction of plasma concentration: within 2 hours after avidin 10 mg/kg i.v. at t = 24 h, sodium salt
Experimental: 3.2 Pharmacokinetics—Neutralization Experiment:
Rats were treated with compound 10, 12, or 27 at a dose of 100 nmol/kg s.c. At t=1 h, a blood sample was taken and 10 mg/kg of Avidin (from egg white, Sigma) was administered i.v. to the rats treated with compound 10 or 12. Blood was sampled at 0.5-1-3-6 and 23 hours subsequently. The blood was treated as described in the pharmacokinetic experiment and the concentration of the samples was determined by measuring the (residual) anti-Xa activity. (FIG. 8)
In a separate experiment compound 10, 17 or 26 was administered at a dose of 500 nmol/kg s.c. after which blood was collected at 24 hours. Then 10 mg/kg avidin was administered intravenously and blood was collected at 25 and 26 hours. (FIG. 9)

factor Xa = test: Anti-factor Xa activity in human plasma (amidolytic, S2222); type: biochemical; conditions: against calibration curve of standard heparin
Experimental: 1.3 In Vitro Test for Determination of the Anti-Factor Xa Activity in Human Plasma
The anti-factor Xa activity of the tested compounds in human plasma were measured amidolytically with S2222 (Chromogenix, Chromogenics Ltd, Molndal, Sweden) using the method described by Teien and Lie. (Teien A N, Lie M. Evaluation of an amidolytic heparin assay method increased sensitivity by adding purified antithrombin III. Thromb. Res. 1977, 10: 399-410). The anti-Xa activity is expressed in U/μmol after comparison of the amidolytic activity with a calibration curve of standard heparin.

[2] = Pharmacokinetics after s.c. administration in rat (plasma anti-Xa activity); type: in vivo; conditions: for Tmax / AUC(0-inf) / Cmax / half-life: male, Wistar, plasma, sc; for half-life: read-out: T½ eli (converted); for pharmacokinetic behavior in rats (comparison): within the variability of the experiment
Experimental: The pharmacokinetic properties of compounds 10, 12, 17 and 27 were studied in male Wistar rats of 300-400 gr. The rats were anaesthetized by inhalation of a mixture of O2N2O/isoflurane, after which the right jugular vein was cannulated. The next day rats were treated s.c. with doses of 100 or 500 nmol/kg. After s.c. administration, blood was sampled at several time intervals. Then the blood was centrifuged after which the plasma was siphoned off and stored at −20° C. until use. The concentration of the tested compound was measured amidolytically with S2222 (Chromogenix, Chromogenics Ltd, Molndal, Sweden) by determination of the anti-Xa activity based on the method of Teien and Lie in the obtained plasma samples against a calibration curve which was made of the stock solution of the tested compound itself. (Teien A N, Lie M. Evaluation of an amidolytic heparin assay method increased sensitivity by adding purified antithrombin III. Thromb. Res. 1977, 10: 399-410). The concentration in the samples was expressed in nmol/mL and the kinetic parameters were calculated with the noncompartment model of WinNonlin. (FIGS. 6 and 7)

[3] = system: human platelet rich plasma; test: Inhibition of human platelet aggregation induced by ADP (PRP); type: cell-based
Experimental: The final concentration is 0.38% sodium citrate.
The optical density (OD620) is then measured at 620 nm. […] This is to verify the stability of the platelets (absence of spontaneous platelet aggregation). […] Between two measurements, the plate is shaking for 40 seconds at 1,000 rpm. Each test compound is investigated in at least 2 experiments using PRP from different volunteers.
The mean OD at each compound concentration (including vehicle) is calculated at t=0 min and t=10 min. The percentage inhibition at each concentration is calculated using the formula: […]

[4] = system: collagen induced platelet aggregation; test: In vivo neutralization: collagen induced platelet aggregation (thrombocytopenia) model; conditions: guinea pig; for neutralization of the platelet inhibitory activity by avidin: avidin 10 mg/kg just prior to collagen infusion
Experimental: 4. In Vivo Neutralization of the Antithrombotic Activity
An intravascular infusion of a collagen suspension induces platelet aggregation and causes transient thrombocytopenia in rats. This test is used to evaluate the influence of a test compound on the severity of thrombocytopenia induced by collagen in rats.
In the first experiment male guinea pigs were s.c. treated with compound 10 at a dose of 75 nmol/kg or vehicle at 4 hours before collagen infusion. In a second experiment compounds 12 and 17 were s.c. administered at a dose of 100 nmol/kg at the same time-point. Male guinea pigs were anaesthetized by i.m. administration of Ketamine+Sedamun (90+10 mg/kg, respectively). After 15 minutes one of the common carotid arteries was dissected free and cannulated with a PE 50 cannula (Clay Adams). Two blood samples of 0.5 mL were collected in plastic vials containing 25 μL 0.20 M Na2EDTA solution. The cannula was then connected to a syringe containing 0.25 mg/mL collagen suspension (Hormon Chemie, Munich, West Germany, diluted with isotonic buffer of pH 2.8). This suspension was administered via an infusion of 225 μL during 30 seconds. Then the syringe was disconnected and 2 blood samples of 0.5 mL were taken at 85 and 95 seconds after the start of the collagen infusion. Then the animals were killed with euthasate after which the number of platelets per sample were counted with a Sysmex blood cell counter model KX-21. In case avidin was used, 10 mg/kg of avidin was i.v. administered at t=4 h after s.c. administration of compound 10, 12 or 17 after which collagen was infused within 5 minutes.
After counting the number of platelets in the collected blood samples the decreased number of platelets is calculated by dividing the mean platelet number of the blood samples obtained at t=85 and 95 seconds by the mean value of the blood samples obtained at t=0. The test was carried out with n=4.

washed human platelets = test: Inhibition of human platelet aggregation induced by TRAP (washed platelets); type: cell-based
Experimental: This aggregation can be determined by measuring the optical density of the WPL. The in vitro test described here is used to analyze the activity of a test compound to inhibit TRAP-induced aggregation of human platelets.
Between two measurements, the plate is shaking for 40 seconds at 1,000 rpm.

[5] = s.c. 100 nmol/kg, avidin 10 mg/kg i.v.
[6] = 75 nmol/kg s.c., + avidin 10 mg/kg i.v. at t = 4 h
[7] = 75 nmol/kg s.c., without avidin
[8] = 100 nmol/kg s.c., + avidin 10 mg/kg i.v. at t = 4 h
[9] = 100 nmol/kg s.c., without avidin

SMILES	level at time molar at 24 h [1] [nM]	neutralization by avidin of (residual) anti-Xa activity / pharmacokinetic behavior [1, 5]	Plasma level T = 26 h [1] [nM]	% reduction of plasma concentration [1] [%]	Anti-Xa U/μmol Human plasma pH 7.4 (factor Xa) [U/μmol]	pharmacokinetic behavior in rats (comparison) [2]	IC50 [3] [nM]	neutralization of the platelet inhibitory activity by avidin [4]	IC50 (washed human platelets) [nM]	Tmax ([2]; 100 nmol/kg) [h]	AUC(0-inf) ([2]; 100 nmol/kg, mean ± s.e.m.) [µM·h]	Cmax ([2]; 100 nmol/kg, mean ± s.e.m.) [nM]	half-life ([2]; 100 nmol/kg, mean ± s.e.m.) [h]	% inhibition [4, 8] [%]	% remaining platelets [4, 8] [%]	No. of platelets t = 0 [4, 8]	No. of platelets t = 90 sec [4, 8]	% remaining platelets [4, 9] [%]	No. of platelets t = 0 [4, 9]	No. of platelets t = 90 sec [4, 9]	other results
CO[C@H]1O[C@H](COS(=O)(=O)O)[C@@H](O[C@@H]2O[C@@H](C(=O)O)[C@@H](O[C@H]3O[C@H](COS(=O)(=O)O)[C@@H](O[C@@H]4O[C@H](C(=O)O)[C@@H](O[C@H]5O[C@H](COS(=O)(=O)O)[C@@H](OCCOCCOCCOCCNC(=O)[C@H](CCCCNC(=O)CCCC[C@@H]6SC[C@@H]7NC(=O)N[C@@H]76)NC(=O)COCCOCCOCCOCCNC(=O)c6cccc(S(=O)(=O)N[C@@H](Cc7ccc(OCCCCC8CCNCC8)cc7)C(=O)O)c6)[C@H](OC)[C@H]5OC)[C@H](OC)[C@H]4OC)[C@H](OS(=O)(=O)O)[C@H]3OS(=O)(=O)O)[C@H](OC)[C@H]2OC)[C@H](OS(=O)(=O)O)[C@H]1OS(=O)(=O)O [Compound 10, sodium salt]	733 ± 33	can be neutralized	185 ± 45	75	927	same pharmacokinetic behavior	74	immediate and quantitative neutralization	72												Cl in comparison to compound 12 [1, 5]: strongly increased; overall AUCinf in comparison to compound 12 [1, 5]: strongly reduced; overall T1/2 eli in comparison to compound 12 [1, 5]: strongly reduced; Cl ([2]; 500 nmol/kg, mean ± s.e.m.): 0.11 ± 0.005 mL/min/kg; Vz ([2]; 500 nmol/kg, mean ± s.e.m.): 0.103 ± 0.009 L/kg; Tmax ([2]; 500 nmol/kg): 1.3 h; AUC(0-inf) ([2]; 500 nmol/kg, mean ± s.e.m.): 76.2 ± 2.8 µM·h; Cmax ([2]; 500 nmol/kg, mean ± s.e.m.): 4500 ± 400 nM; half-life ([2]; 500 nmol/kg, mean ± s.e.m.): 10.7 ± 1.5 h; No. of platelets t = 0 ([4]; 75 nmol/kg s.c., 4 h before collagen, without avidin): 386 ± 31; % inhibition ([4]; 75 nmol/kg s.c., 4 hours after administration, without avidin, sodium salt): 76 ± 4%; % inhibition [4, 6]: 2 ± 13%; % remaining platelets [4, 6]: 40.4 ± 7.8%; No. of platelets t = 0 [4, 6]: 384 ± 20; No. of platelets t = 90 sec [4, 6]: 152 ± 26; % remaining platelets [4, 7]: 85.3 ± 2.5%; No. of platelets t = 90 sec [4, 7]: 328 ± 18
CO[C@H]1O[C@H](COS(=O)(=O)O)[C@@H](O[C@@H]2O[C@@H](C(=O)O)[C@@H](O[C@H]3O[C@H](COS(=O)(=O)O)[C@@H](O[C@@H]4O[C@H](C(=O)O)[C@@H](O[C@H]5O[C@H](COS(=O)(=O)O)[C@@H](OCCOCCOCCOCCNC(=O)COCCOCCOCCOCCNC(=O)c6cccc(S(=O)(=O)N[C@@H](Cc7ccc(OCCCCC8CCNCC8)cc7)C(=O)O)c6)[C@H](OC)[C@H]5OC)[C@H](OC)[C@H]4OC)[C@H](OS(=O)(=O)O)[C@H]3OS(=O)(=O)O)[C@H](OC)[C@H]2OC)[C@H](OS(=O)(=O)O)[C@H]1OS(=O)(=O)O [Compound 12, sodium salt, reference compound]		not affected			1392	same pharmacokinetic behavior	92	not	65	1.3	16.8 ± 0.5	1260 ± 20	9.8 ± 0.4	74 ± 3	86.5 ± 1.7	379 ± 6	329 ± 11	84.5 ± 2.2	426 ± 6	360 ± 7	% inhibition ([4]; 100 nmol/kg s.c., 4 hours after administration, without avidin, sodium salt): 70 ± 4%
CO[C@H]1O[C@H](COS(=O)(=O)O)[C@@H](O[C@@H]2O[C@@H](C(=O)O)[C@@H](O[C@H]3O[C@H](COS(=O)(=O)O)[C@@H](O[C@@H]4O[C@H](C(=O)O)[C@@H](O[C@H]5O[C@H](COS(=O)(=O)O)[C@@H](OCCOCCOCCOCCNC(=O)[C@H](CCCCNC(=O)C[C@H](NC(=O)CCCC[C@@H]6SC[C@@H]7NC(=O)N[C@@H]76)C(=O)O)NC(=O)COCCOCCOCCOCCNC(=O)c6cccc(S(=O)(=O)N[C@@H](Cc7ccc(OCCCCC8CCNCC8)cc7)C(=O)O)c6)[C@H](OC)[C@H]5OC)[C@H](OC)[C@H]4OC)[C@H](OS(=O)(=O)O)[C@H]3OS(=O)(=O)O)[C@H](OC)[C@H]2OC)[C@H](OS(=O)(=O)O)[C@H]1OS(=O)(=O)O [Compound 17, sodium salt]	666 ± 93		112 ± 35	83	1411	same pharmacokinetic behavior	49	immediate and quantitative neutralization	74	1.7	15.9 ± 0.9	1240 ± 10	10.4 ± 0.5	−5 ± 15	46.5 ± 7.8	367 ± 16	181 ± 12	82.5 ± 2.0	424 ± 11	348 ± 7	
